4 compounds from patent publication EP4725957A1, “GROUP OF CYCLIC ALKALINE LIPOPEPTIDE COMPOUNDS, AND PREPARATION METHOD THEREFOR AND USE THEREOF” (Institute of Medicinal Biotechnology, Chinese Academy of …, priority 2023, dated 2024) can be followed below.

Each structure is given as a SMILES string. Converted amounts (≈) assume the structure as drawn. Bridge positions count the residues as written; N and C are the ends. Square brackets hold non-standard residues; d marks the D form. Peptide text beside a SMILES is read from it. * marks the point of attachment. Heptanoyl(6-Me) = CC(C)CCCCC(=O)*; X1 = CC[C@H](C)CCCCC(=O)*; Octanoyl = CCCCCCCC(=O)*; Orn = NCCC[C@H](N)C(=O)O; dDap = NC[C@@H](N)C(=O)O; Dab = NCC[C@H](N)C(=O)O; Dap = NC[C@H](N)C(=O)O

Holding throughout (format): cell-based
The test system of series [1] is Acinetobacter baumannii ABA19-1. The settings on record: ABA19-1. In short, it runs like this:
(§1)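 Minimal inhibitory concentrations are measured following CLSI microdilution guidance in MH broth. Test concentrations run from 64 down to 0.03 mg/L in doubling steps, with a final bacterial load of (2-4) × 10^5 CFU/mL and 16-20 h incubation at 35-37°C.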

Series [2] concerns Acinetobacter baumannii NCTC 13304 (OXA-27). The settings on record: NCTC 13304. The gist of the method: as §1
Series [3] relates to Escherichia coli ATCC BAA-2340 (KPC). Conditions: ATCC BAA-2340. The gist of the method: as §1
Series [4] has as its system Escherichia coli ATCC BAA-2523. The settings on record: ATCC BAA-2523. In short, it runs like this:
as §1

Series [5] concerns Klebsiella pneumoniae ATCC BAA-1705 (KPC). The settings on record: ATCC BAA-1705. In short, it runs like this:
as §1

The test system of series [6] is Klebsiella pneumoniae KPN+19-15. Conditions: KPN+19-15. The gist of the method: as §1
Series [7] deals with Pseudomonas aeruginosa ATCC 27853. The settings on record: ATCC 27853. The gist of the method: as §1
Series [8] relates to Pseudomonas aeruginosa PAE19-3. Conditions: PAE19-3. In short, it runs like this: as §1
Series [9] is described as follows: Nephrotoxicity assay: in vitro cytotoxicity of HK-2 cells by CCK-8 assay. Conditions: human, HK-2 cells (human renal), 72 h incubation with drug-containing medium. In short, it runs like this: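 HK-2 human renal cells in RPMI-1640 with 10% FBS were exposed to compounds at final 12.5–500 µg/mL for 72 h, then CCK-8 for 3 h and OD450 read. Viability was normalised to drug-free wells; IC50 came from logarithmic regression over three repeats, with polymyxin B as positive drug.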

With `CC(C)CCCCC(=O)N[C@@H](CCN)C(=O)N[C@H](C(=O)N[C@H](CN)C(=O)N[C@H]1CCNC(=O)[C@H]([C@@H](C)O)NC(=O)[C@H](CCN)NC(=O)[C@H](CCN)NC(=O)[C@H](CC(C)C)NC(=O)[C@@H](Cc2ccccc2)NC(=O)[C@H](CCN)NC1=O)[C@@H](C)O` [Compound 32, 6-methylheptanoyl-Dab-Thr-D-Dap-ring(4-10)[Dab-Dab-D-Phe-Leu-Dab-Dab-Thr]] ({Heptanoyl(6-Me)}-[Dab]T[dDap][Dab][Dab][dF]L[Dab][Dab]T; lactam 4-C), the minimal inhibitory concentration (MIC) in series [1], in series [2], in series [3], in series [4], in series [5] and in series [6] was 0.03 µg/mL (≈ 0.0255 µM) in each case. Further, the figures for the MIC in series [7] and in series [8] were 0.03 µg/mL (≈ 0.0255 µM) and 0.25 µg/mL (≈ 0.213 µM), respectively. The same compound came in with an IC50 at 72 h in series [9] of 325 ± 11.7 µg/mL (≈ 277 µM).

Take `CCCCCCCC(=O)N[C@@H](CCN)C(=O)N[C@H](C(=O)N[C@H](CO)C(=O)N[C@H]1CCNC(=O)[C@H]([C@@H](C)O)NC(=O)[C@H](CCN)NC(=O)[C@H](CN)NC(=O)[C@H]([C@@H](C)O)NC(=O)[C@@H](Cc2ccccc2)NC(=O)[C@H](CCN)NC1=O)[C@@H](C)O` [Compound 73, Octanoyl-Dab-Thr-D-Ser-ring(4-10)[Dab-Dab-D-Phe-Thr-Dap-Dab-Thr]] (Octanoyl-[Dab]T[dS][Dab][Dab][dF]T[Dap][Dab]T; lactam 4-C): the MIC was 0.06 µg/mL (≈ 0.0522 µM) in series [1]; at most 0.03 µg/mL in [2]; at most 0.03 µg/mL in series [3]; at most 0.03 µg/mL in series [4]; 0.25 µg/mL (≈ 0.217 µM) in [5]; 0.5 µg/mL (≈ 0.435 µM) in [6]. The MIC in series [7] is over 64 µg/mL; in series [8] it was 64 µg/mL (≈ 55.6 µM). Also, the IC50 at 72 h in series [9] was over 500 µg/mL.

As to `CCCCCCCC(=O)N[C@@H](CCN)C(=O)N[C@H](C(=O)N[C@@H](CCCN)C(=O)N[C@H]1CCNC(=O)[C@H]([C@@H](C)O)NC(=O)[C@H](CCN)NC(=O)[C@H](CCN)NC(=O)[C@H](CC(C)C)NC(=O)[C@@H](Cc2ccccc2)NC(=O)[C@H](CCN)NC1=O)[C@@H](C)O` [Compound 48, Octanoyl-Dab-Thr-Orn-ring(4-10)[Dab-Dab-D-Phe-Leu-Dab-Dab-Thr]] (Octanoyl-[Dab]T[Orn][Dab][Dab][dF]L[Dab][Dab]T; lactam 4-C), the MIC is 0.125 µg/mL (≈ 0.104 µM) in [1]; 0.06 µg/mL (≈ 0.0499 µM) in series [2]; 0.03 µg/mL (≈ 0.0249 µM) in [3]; 0.03 µg/mL (≈ 0.0249 µM) in [4]; at most 0.03 µg/mL in [5]; at most 0.03 µg/mL in series [6]. In addition, the minimum inhibitory concentration (MIC) in series [7] was at most 0.03 µg/mL; in [8] it was 0.25 µg/mL (≈ 0.208 µM). Further, the IC50 at 72 h in series [9] was found to be 239 ± 7.4 µg/mL (≈ 199 µM).

`CC[C@H](C)CCCCC(=O)N[C@@H](CCN)C(=O)N[C@H](C(=O)N[C@H](CN)C(=O)N[C@H]1CCNC(=O)[C@H]([C@@H](C)O)NC(=O)[C@H](CCN)NC(=O)[C@H](CCN)NC(=O)[C@H]([C@@H](C)O)NC(=O)[C@H](Cc2ccccc2)NC(=O)[C@H](CCN)NC1=O)[C@@H](C)O` [Compound 101, (S)-6-methyloctanoyl-Dab-Thr-D-Dap-ring(4-10)[Dab-Dab-Phe-Thr-Dab-Dab-Thr]] (X1-[Dab]T[dDap][Dab][Dab]FT[Dab][Dab]T; lactam 4-C): the MIC in [1], in series [2], in series [3], in [4], in series [5] and in [6] was over 64 µg/mL each time. Moreover, the minimum inhibitory concentration (MIC) in [7] and in series [8] was over 64 µg/mL each time. The same compound displayed an IC50 at 72 h in series [9] of over 500 µg/mL.
